Data as given in patent publication US20040106802A1, “Novel compounds and therapeutic uses thereof” (TORRENT PHARMACEUTICALS LTD., priority 2002, published 2004).
Values joined by “and” are separate entries in the source; they are usually repeats but may differ in a detail not shown here. Equal values may be shown once. Where a name gives a salt, the structure may show the parent alone. Read-outs that look alike come from different tables or passages of the source.

Legend:
Porcine DPP-IV = target: T1, Porcine DPP-IV (Sus scrofa, UniProt P22411); assay: Assay of DPP-IV enzyme inhibitory activity (spectrophotometric, Gly-Pro-pNA cleavage); assay type: biochemical; conditions: Porcine DPP-IV, Gly-Pro-pNA substrate, 30° C., mean ± SD of three experiments except compound Nos. 133 & 139, read-out: IC50 (μM) Mean ± SD, inhibitory activity on DPP-IV enzyme activity
T1 construct: purchased Sigma-Aldrich Germany
T1 sequence (P22411 whole entry): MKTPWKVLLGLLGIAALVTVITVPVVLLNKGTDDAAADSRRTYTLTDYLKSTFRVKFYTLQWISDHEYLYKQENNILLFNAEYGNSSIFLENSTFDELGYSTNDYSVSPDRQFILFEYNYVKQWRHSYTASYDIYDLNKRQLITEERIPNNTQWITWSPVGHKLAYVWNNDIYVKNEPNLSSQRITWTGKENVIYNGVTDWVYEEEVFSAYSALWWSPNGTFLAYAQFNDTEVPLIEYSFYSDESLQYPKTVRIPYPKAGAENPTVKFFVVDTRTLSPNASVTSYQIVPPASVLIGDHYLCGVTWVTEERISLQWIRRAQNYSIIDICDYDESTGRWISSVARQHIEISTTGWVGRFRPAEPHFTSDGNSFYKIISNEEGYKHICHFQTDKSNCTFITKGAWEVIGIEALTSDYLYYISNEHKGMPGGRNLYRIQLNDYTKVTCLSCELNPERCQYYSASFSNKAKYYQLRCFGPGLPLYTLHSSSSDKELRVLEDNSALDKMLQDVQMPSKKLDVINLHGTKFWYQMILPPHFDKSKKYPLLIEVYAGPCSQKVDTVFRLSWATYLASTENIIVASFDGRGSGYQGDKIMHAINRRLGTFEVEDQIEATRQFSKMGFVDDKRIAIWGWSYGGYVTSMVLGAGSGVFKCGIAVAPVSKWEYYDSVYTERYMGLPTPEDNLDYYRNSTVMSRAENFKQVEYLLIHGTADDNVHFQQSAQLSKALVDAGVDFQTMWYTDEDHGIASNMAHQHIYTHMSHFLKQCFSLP

[1] = system: STZ induced diabetic rats; assay: In vivo oral glucose tolerance study in nSTZ induced diabetic rats, i.v. drug; conditions: 8 mg/ml/kg i.v.
Experimental: In Vivo Oral Glucose Tolerance Studies
The anti-hyperglycemic effect of compound no. 95 (8 mg/ml/kg, i.v) after an oral glucose load of 1 gm/kg was studied in STZ induced diabetic rats (modified method of Balkan et al 1999).
Animals: Male STZ induced diabetic rats aged 10-12 weeks and weighing between 200-250 gm were used for the study. These rats were treated with streptozotocin administered intraperitoneally on the day of birth at a dose of 90 mg/kg. They were maintained under standard conditions till the age of 10-12 weeks when they were used for the study.
Materials: Glucose solution (1 gm/4 ml of saline), Diethyl ether compound no. 95 (8 mg/ml/kg), vehicle (1 ml/kg), Heparinized saline (100 IU/ml), glucometer and strips
Method: Animals were divided into two groups
Group I: 8 hours fasted rats were treated with compound no. 95 vehicle (1 ml/kg, i.v.) 5 min before administration of glucose load.
Group II: 8 hours fasted rats were treated with compound no. 95 (8 mg/ml/kg, i.v) 5 min before administration of glucose load.
In both groups, blood samples were taken before administration of vehicle/compound no. 95 and glucose load for blood glucose estimation. Blood glucose level before administration of compound no. 95 or its vehicle was considered as −5 min reading. Blood glucose level before administration of glucose was considered as 0 min reading.
After 10, 20, 30, 45, 60, 75, 90, 120, 150 and 180 min of glucose administration, blood glucose level was estimated by the glucose oxidase method using a LifeScan glucometer (Ca, USA). Blood glucose level at various time points was subtracted from the basal (0 min) reading. This was done to avoid changes in AUC because of variation in basal glucose level. The glucose excursion at various time points was plotted against time and the AUC was calculated.
The activity of compound no. 95 was expressed as % reduction in AUC as compared with that of its vehicle.

[2] = In-vitro free radical scavenging activity using DPPH free radical; conditions: 30° C., 30 minutes, 515 nm
Excerpt: Free Radical Scavenging Activity:
To determine the in-vitro free radical scavenging activity of compounds of general formula-I on 2,2,-diphenyl-1-picrylhydrazyl (DPPH)radical (Ref: W. Brand-Williams, M. E. Cuvelier, C. Berset “Use of a free radical method to evaluate antioxidant activity”, Lebensm.- Wiss.u.Technol.,1995,28,Nr.1:25-30).
To evaluate the free radical scavenging activity of compounds they are allowed to react with stable radical DPPH*. In its radical form, DPPH* absorbed at the characteristic wave length of 515 nm, but upon reduction by an antioxidant or radical scavenger (AH), the absorption disappears.
10^−4M solution of DPPH* was prepared in methanol.
Various concentrations (10 mM, 1 mM, 0.5 mM, 0.25 mM and 0.125 mM) of drug solutions were prepared in methanol.
900 μl of DPPH radical solution was added to an eppendorf tube. To it was added 100 μl of methanol.
900 μl of DPPH radical solution was added to an eppendorf tube. To it was added 100 μl of various concentrations of drug solutions in methanol.
The absorbance of control and test samples was recorded after incubation at 30° C. for 30 minutes, at 515 nm taking methanol as blank.
The percent antioxidant activity was calculated according to the formula:
% Antioxidant activity=100−[O.D of test sample/O.D of control*100]

zucker fatty rats = conditions: cited from earlier work
DPP-IV = conditions: in vivo; cited from earlier work
nOSTZ diabetic rats = assay: Oral glucose tolerance test in neonatal streptozotocin-induced (nOSTZ) diabetic rats, oral drug; assay type: in vivo, Wistar rats; conditions: 22 mg/kg oral; for percent change in blood glucose from basal glucose level / peak glucose levels (% from basal level): glucose load 1 g/kg; for peak glucose levels (% from basal level): significantly lower than vehicle (157.07±14.17%); for glucose tolerance (in words): nOSTZ rats
Excerpt: Effect of Compound no. 140 and Compound no. 142 on Oral Glucose Tolerance in Neonatel Streptozotocin-Induced (nO STZ) Diabetic Rats
Principle of Glucose Estimation by Glucometer (One Touch, Lifescan, USA)
Glucose and oxygen react in the presence of glucose oxidase yielding gluconic acid and hydrogen peroxide. Hydrogen peroxide subsequently oxidizes the dyes in a reaction mediated by Peroxidase producing a blue colored form of the dyes (Marks and Dawson, 1965). The intensity of the blue color is proportional to the glucose concentration in the sample.
Wistar rats were made type 2 diabetic by injecting streptozotocin (STZ) at the dose of 90 mg/kg intraperitoneally on the day of birth (nOSTZ) to male pups (Portha et al, 2001). Animals showing overnight fasted blood glucose levels between 7-10 mM at the age of 10-12 weeks were used for the study. On the day of the experiment, animals were fasted overnight with free access to water.
Oral Glucose Tolerance Test (OGTT) (Pospisilik et al, 2002)
External jugular vein of overnight fasted nOSTZ rats was cannulated using polyethylene cannula with heparinized (100 IU/ml) saline under ether anesthesia and exteriorized at the back of the neck. After the animal was recovered from the anesthesia, blood sample was drawn as marked as ‘−5 min’ sample and drug formulation (in 0.5% sodium caboxymethyl cellulose, Na-CMC) was administered orally at the volume of 1 ml/kg body weight.
5 min after drug administration, blood sample was drawn as ‘0 min’ sample and glucose load at the dose of 1 g/kg body weight was administered orally. Blood samples were drawn subsequently at 5, 10, 15, 20, 30, 45, 60, 75, 90, 120, 180, 240 and 360 min time interval. Blood glucose is measured using glucometer.
Animals were divided into three groups: 1. Vehicle (0.5% Na-CMC) treated, 2. Compound no. 140 treated (22 mg/kg) and 3. Compound no. 142 treated (22 mg/kg).
Change in blood glucose at various time points was measured as percent increase or decrease from basal glucose level. Area under the curve (AUC) for glucose was calculated using WinNonlin software.

[3] = in vivo; cited from earlier work

For `CC(C)N(N)C(=O)N1CSCC1C#N.Cl` (stereo not drawn), the melting point was 148 to 150 °C (dec.).

For `Cl.N#CC1CCCN1C(=O)N(N)C1CCCCC1` (stereo not drawn), the melting point was 160 to 162 °C (dec.).

With `Cl.N#CC1CSCN1C(=O)N(N)C1CCCCC1` (stereo not drawn) the melting point was 166 to 168 °C (dec.).

`N#CC1CCCN1C(=O)C1CNCCN1.O=C(O)C(F)(F)F.O=C(O)C(F)(F)F` (stereo not drawn) [Compound No. 1, 2-Cyano-1-(piperazine-2-yl)-carbonyl pyrrolidine bis-trifluoroacetate] gave a melting point of 126 to 128 °C and an IC50 (Porcine DPP-IV) of 47.6 ± 2.72 µM.

For `N#CC1CSCN1C(=O)CN(N)C1CCN(CC(=O)Nc2ccc(Cl)cn2)CC1` (stereo not drawn) [Compound No. 95], the “Glucose excursions after a 1 gm/kg glucose load” value (from here on “Glucose excursions”) ([1]; 0 min) was 0.0, the “AUC values mM * min of glucose excursion” value ([1]; 5 min before 1 gm/kg glucose load, Mean ± SD, P < 0.05 vs vehicle) was 413.3±134.6 mM * min and 413.3 ± 134.6a mM * min and the “effect on hyperglycemia (in words)” value ([1]; nSTZ induced diabetic rats) was “controls hyperglycemia and brings the glucose levels to normoglycemic range”. For the same compound, the “Glucose excursions” value ([1]; 10 min) was 3.9, the “Glucose excursions” value ([1]; 20 min) was 5.9 and the “Glucose excursions” value ([1]; 30 min) was 7.8. The “Glucose excursions” value ([1]; 45 min) was 6.2, the “Glucose excursions” value ([1]; 60 min) was 4.1 and the “Glucose excursions” value ([1]; 75 min) was 2.7. The “Glucose excursions” value ([1]; 90 min) was 0.5, the “Glucose excursions” value ([1]; 120 min) was −2.8 and the “Glucose excursions” value ([1]; 150 min) was −4.1. For the same compound, the “Glucose excursions” value ([1]; 180 min) was −3.9, the “% Activity (antioxidant, DPPH)” value ([2]; Concentration 12.5 μM, 12.5 µM) was 22.06% and the “% Activity (antioxidant, DPPH)” value ([2]; Concentration 25 μM, 25 µM) was 36.87%. The “% Activity (antioxidant, DPPH)” value ([2]; Concentration 50 μM, 50 µM) was 44.81% and the “% Activity (antioxidant, DPPH)” value ([2]; Concentration 100 μM, 100 µM) was 65.52%.

In the case of `CC[C@H](C)[C@H](N)C(=O)N1CCSC1` [Isoleucine thiazolidide], the “glucose tolerance (in words)” value (zucker fatty rats) is listed as “improved glucose tolerance”.

For `N#Cc1ccc(NCCNCC(=O)N2CCC[C@H]2C#N)nc1` [NVP-DPP-728, 1-[-2-{(5-cyanopyridin-2-yl)amino}ethylamino]acetyl-2-cyano-(S)-pyrrolidine], the “insulin secretion and glucose tolerance (in words)” value (DPP-IV) is listed as “improves insulin secretion and glucose tolerance”.

In the case of `Cl.Cl.Cl.N#Cc1ccc(NC(=O)CN2CCC(N(N)CC(=O)N3CSCC3C#N)CC2)nc1` (stereo not drawn) [compound 140, 3-[1-oxo-2-(1-(1-(2-oxo-2-(5-cyanopyridin-2-yl)aminoethyl)piperidin-4-yl))hydrazino]ethyl-4-cyano thiazolidine, trihydrochloride], the “percent change in blood glucose from basal glucose level” value (“percent change in blood glucose” for short) (nOSTZ diabetic rats; 0 min) is reported as 0.0 ± 0.0%, the “peak glucose levels (% from basal level)” value (nOSTZ diabetic rats) is reported as 99.19±17.87% and the “glucose tolerance (in words)” value (nOSTZ diabetic rats) is reported as “improved glucose tolerance”. For the same compound, the “percent change in blood glucose” value (nOSTZ diabetic rats; 5 min) was 21.97 ± 1.14%, the “percent change in blood glucose” value (nOSTZ diabetic rats; 10 min) was 49.11 ± 11.7% and the “percent change in blood glucose” value (nOSTZ diabetic rats; 15 min) was 64.67 ± 10.17%. The “percent change in blood glucose” value (nOSTZ diabetic rats; 20 min) was 69.62 ± 12.73%, the “percent change in blood glucose” value (nOSTZ diabetic rats; 30 min) was 90.29 ± 22.93% and the “percent change in blood glucose” value (nOSTZ diabetic rats; 45 min) was 99.19 ± 17.87%. For the same compound, the “percent change in blood glucose” value (nOSTZ diabetic rats; 60 min) was 82.76 ± 16.22%, the “percent change in blood glucose” value (nOSTZ diabetic rats; 90 min) was 34.3 ± 20.32% and the “percent change in blood glucose” value (nOSTZ diabetic rats; 120 min) was −21.87 ± 25.68%. For the same compound, the “percent change in blood glucose” value (nOSTZ diabetic rats; 180 min) was −45.71 ± 18.48%, the “percent change in blood glucose” value (nOSTZ diabetic rats; 240 min) was −48.6 ± 13.58% and the “percent change in blood glucose” value (nOSTZ diabetic rats; 360 min) was −49.76 ± 10.31%. It also gave an IC50 (Porcine DPP-IV; trihydrochloride) of 0.13 ± 0.03 µM.

In the case of `N#CC1CSCN1C(=O)CN(N)C1CCN(CC(=O)Nc2ccc(S(N)(=O)=O)cc2)CC1` (stereo not drawn) [compound 142, 3-[1-oxo-2-(1-(1-(2-oxo-2-(4-aminosulphonylphenyl)aminoethyl)piperidin-4-yl))hydrazino]ethyl-4-cyano thiazolidine, dihydrochloride], the “percent change in blood glucose” value (nOSTZ diabetic rats; 0 min) is reported as 0.0 ± 0.0%, the “peak glucose levels (% from basal level)” value (nOSTZ diabetic rats) is reported as 87.25±15.61% and the “glucose tolerance (in words)” value (nOSTZ diabetic rats) is reported as “improved glucose tolerance”. The “percent change in blood glucose” value (nOSTZ diabetic rats; 5 min) was 9.79 ± 4.13%, the “percent change in blood glucose” value (nOSTZ diabetic rats; 10 min) was 29.41 ± 3.4% and the “percent change in blood glucose” value (nOSTZ diabetic rats; 15 min) was 46.51 ± 5.23%. For the same compound, the “percent change in blood glucose” value (nOSTZ diabetic rats; 20 min) was 56.51 ± 4.33%, the “percent change in blood glucose” value (nOSTZ diabetic rats; 30 min) was 77.93 ± 12.12% and the “percent change in blood glucose” value (nOSTZ diabetic rats; 45 min) was 87.25 ± 15.61%. For the same compound, the “percent change in blood glucose” value (nOSTZ diabetic rats; 60 min) was 67.33 ± 11.49%, the “percent change in blood glucose” value (nOSTZ diabetic rats; 90 min) was 67.45 ± 9.8% and the “percent change in blood glucose” value (nOSTZ diabetic rats; 120 min) was 31.4 ± 8.51%. The “percent change in blood glucose” value (nOSTZ diabetic rats; 180 min) was −48.05 ± 5.75%, the “percent change in blood glucose” value (nOSTZ diabetic rats; 240 min) was −58.87 ± 6.10% and the “percent change in blood glucose” value (nOSTZ diabetic rats; 360 min) was −63.57 ± 4.77%. For the same compound, the IC50 (Porcine DPP-IV) was 0.07 ± 0.01 µM.

For GLP-19-36, the “apparent half-life in the circulation” value [3] is listed as 4 to 5 min.
